Test results from patent US20240150356A1, “Pyrimidine amide compounds and use thereof” (ALPHALA CO., LTD., priority 2019, published 2024).
Like-named read-outs stand apart in the source and are kept apart here.

System: Hep3B cells (hepatocellular carcinoma cell line)
Assay: In vitro MTS cell viability assay (NCI-60 methodology), Hep3B
Assay type: cell-based
Conditions: Homo sapiens, 48 h, 2 days drug incubation, 50% reduction vs time zero, read-out: Hep3B LC50
Outline: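 Following NCI-60 method, MTS viability of Hep3B measured 24 h after plating (time zero) and after a further 2-day exposure to five concentrations (2-fold series). LC50 defined where [(Ti−Tz)/Tz]×100 = −50.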

`O=C(Nc1nc(-c2cc(C(F)(F)F)ccc2F)nc2c(-c3ccccc3)csc12)c1ccc([N+](=O)[O-])s1` [Compound 4-17, N-(2-(2-fluoro-5-(trifluoromethyl)phenyl)-7-phenylthieno[3,2-d]pyrimidin-4-yl)-5-nitrothiophene-2-carboxamide] gave an LC50 (Table 4, MTS) of 860 nM.
Molecule `Cc1ccccc1-n1ncc2c(NC(=O)c3ccc([N+](=O)[O-])s3)nc(-c3ccc(F)nc3)nc21` [Compound 6-2] has an LC50 (Table 6, MTS) greater than 3000 nM.
Work on `COc1cncc(-c2nc(NC(=O)c3ccc([N+](=O)[O-])s3)c3cnn(C4CCCCC4)c3n2)c1` [Compound 10-22] yielded an LC50 (Table 10, MTS) of 1160 nM.
`COCCOc1ccc(-c2nc(NC(=O)c3ccc([N+](=O)[O-])s3)c3cnn(-c4ccc(Cl)cc4)c3n2)cn1` [Compound 6-51, N-(1-(4-chlorophenyl)-6-(6-(2-methoxyethoxy)pyridin-3-yl)-1H-pyrazolo[3,4-d]pyrimidin-4-yl)-5-nitrothiophene-2-carboxamide] was tested, and the LC50 (Table 6, MTS) was 50 nM.
In the case of `CN(C)c1cccc(-c2nc(NC(=O)c3ccc([N+](=O)[O-])s3)c3cnn(-c4ccccc4)c3n2)c1` [Compound 5-41, N-(6-(3-(dimethylamino)phenyl)-1-phenyl-1H-pyrazolo[3,4-d]pyrimidin-4-yl)-5-nitrothiophene-2-carboxamide], the LC50 (Table 5, MTS) is reported as 450 nM.
`COCCOC(=O)N1CCC(n2ncc3c(NC(=O)c4ccc([N+](=O)[O-])s4)nc(-c4ccc(Cl)cc4)nc32)CC1` [Compound 9-12, 2-methoxyethyl 4-(6-(4-chlorophenyl)4-(5-nitrothiophene-2-carboxamido)-1H-pyrazolo[3,4-d]pyrimidin-1-yl)piperidine-1-carboxylate] gave an LC50 (Table 9, MTS) of 1860 nM.
`CC(C)(C)c1ccc(-c2nc(NC(=O)c3ccc([N+](=O)[O-])s3)c3cnn(-c4ccc(OC(F)(F)F)cc4)c3n2)cc1` [Compound 6-86, N-(6-(4-(tert-butyl)phenyl)-1-(4-(trifluoromethoxy)phenyl)-1H-pyrazolo[3,4-d]pyrimidin-4-yl)-5-nitrothiophene-2-carboxamide] showed an LC50 (Table 6, MTS) of 3460 nM.
With `COc1ccc(-n2ncc3c(NC(=O)c4ccc([N+](=O)[O-])s4)nc(-c4ccc(F)c(F)c4)nc32)cc1` [Compound 6-23, N-(6-(3,4-difluorophenyl)-1-(4-methoxyphenyl)-1H-pyrazolo[3,4-d]pyrimidin-4-yl)-5-nitrothiophene-2-carboxamide] the LC50 (Table 6, MTS) was 170 nM.
For `O=C(Nc1nc(-c2ccc(Cl)cc2Cl)nc2c1cnn2C1CCCCC1)c1ccc([N+](=O)[O-])s1` [Compound 10-42], the LC50 (Table 10, MTS) was greater than 1250 nM.
`Cc1nn(C)c2c(NC(=O)c3ccc([N+](=O)[O-])s3)nc(-c3ccc(C(F)(F)F)cc3)nc12` [Compound 3-1, N-(1,3-dimethyl-5-(4-(trifluoromethyl)phenyl)-1H-pyrazolo[4,3-d]pyrimidin-7-yl)-5-nitrothiophene-2-carboxamide] gave an LC50 (Table 3, MTS) of 2220 nM.
`CCOc1ccc(-c2nc(NC(=O)c3ccc([N+](=O)[O-])s3)c3cnn(C4CCCCC4)c3n2)cc1Cl` [Compound 10-44] showed an LC50 (Table 10, MTS) greater than 2000 nM.
Work on `O=C(Nc1nc(-c2ccsc2)nc2c1cnn2-c1ccccc1)c1ccc([N+](=O)[O-])s1` [Compound 5-20, 5-nitro-N-(1-phenyl-6-(thiophen-3-yl)-1H-pyrazolo[3,4-d]pyrimidin-4-yl)thiophene-2-carboxamide] yielded an LC50 (Table 5, MTS) of 1110 nM.
In the case of `O=C(Nc1nc(N2CCC(F)(F)CC2)nc2c1cnn2C1CCCCC1)c1ccc([N+](=O)[O-])s1` [Compound 10-2, N-(1-cyclohexyl-6-(4,4-difluoropiperidin-1-yl)-1H-pyrazolo[3,4-d]pyrimidin-4-yl)-5-nitrothiophene-2-carboxamide], the LC50 (Table 10, MTS) is reported as 3120 nM.
For `COc1ccc(-n2ncc3c(NC(=O)c4ccc([N+](=O)[O-])s4)nc(-c4ccc(Cl)cc4)nc32)cc1` [Compound 6-20, N-(6-(4-chlorophenyl)-1-(4-methoxyphenyl)-1H-pyrazolo[3,4-d]pyrimidin-4-yl)-5-nitrothiophene-2-carboxamide], the LC50 (Table 6, MTS) was 320 nM.
In the case of `CCOCCOc1ccc(-c2nc(NC(=O)c3ccc([N+](=O)[O-])s3)c3cnn(-c4ccc(OC)cc4)c3n2)cn1` [Compound 6-27, N-(6-(6-(2-ethoxyethoxy)pyridin-3-yl)-1-(4-methoxyphenyl)-1H-pyrazolo[3,4-d]pyrimidin-4-yl)-5-nitrothiophene-2-carboxamide], the LC50 (Table 6, MTS) is reported as 210 nM.
`O=C(Nc1nc(-c2ccc(F)cc2)nc2c1cnn2C1CCCCCC1)c1ccc([N+](=O)[O-])s1` [Compound 8-10, N-(1-cycloheptyl-6-(4-fluorophenyl)-1H-pyrazolo[3,4-d]pyrimidin-4-yl)-5-nitrothiophene-2-carboxamide] was tested, and the LC50 (Table 8, MTS) was 830 nM.
Work on `O=C(Nc1nc(-c2ccc(OC(F)(F)F)cc2)nc2c1cnn2CCN1CCOCC1)c1ccc([N+](=O)[O-])s1` [Compound 1-30, N-(1-(2-morpholinoethyl)-6-(4-(trifluoromethoxy)phenyl)-1H-pyrazolo[3,4-d]pyrimidin-4-yl)-5-nitrothiophene-2-carboxamide] yielded an LC50 (Table 1, MTS) of 1700 nM.
For `CCOCCOc1ccc(-c2nc(NC(=O)c3ccc([N+](=O)[O-])s3)c3cnn(-c4ccc(F)cc4)c3n2)cn1` [Compound 6-136, N-(6-(6-(2-ethoxyethoxy)pyridin-3-yl)-1-(4-fluorophenyl)-1H-pyrazolo[3,4-d]pyrimidin-4-yl)-5-nitrothiophene-2-carboxamide], the LC50 (Table 6, MTS) was 260 nM.
`O=C(Nc1nc(-c2cccc(F)c2)nc2c1cnn2C1CCCCC1)c1ccc([N+](=O)[O-])s1` [Compound 10-12, N-(1-cyclohexyl-6-(3-fluorophenyl)-1H-pyrazolo[3,4-d]pyrimidin-4-yl)-5-nitrothiophene-2-carboxamide] showed an LC50 (Table 10, MTS) of 950 nM.
Molecule `O=C(Nc1nc(N2CC[C@H](O)C2)nc2c1cnn2-c1ccccc1)c1ccc([N+](=O)[O-])s1` [Compound 5-4, (S)—N-(6-(3-hydroxypyrrolidin-1-yl)-1-phenyl-1H-pyrazolo[3,4-d]pyrimidin-4-yl)-5-nitrothiophene-2-carboxamide] has an LC50 (Table 5, MTS) of 1010 nM.
`O=C(Nc1nc(-c2cncnc2)nc2c1cnn2-c1ccccc1)c1ccc([N+](=O)[O-])s1` [Compound 5-24, 5-nitro-N-(1-phenyl-6-(pyrimidin-5-yl)-1H-pyrazolo[3,4-d]pyrimidin-4-yl)thiophene-2-carboxamide] was tested, and the LC50 (Table 5, MTS) was 960 nM.
In the case of `CC(C)N1CCC(n2ncc3c(NC(=O)c4ccc([N+](=O)[O-])s4)nc(-c4ccc(F)nc4)nc32)CC1` [Compound 9-1], the LC50 (Table 9, MTS) is reported as 1250 nM.
In the case of `CCOC(=O)N1CC[C@@H](n2ncc3c(NC(=O)c4ccc([N+](=O)[O-])s4)nc(-c4ccc(F)nc4)nc32)C1` [Compound 8-6, ethyl (R)-3-(6-(6-fluoropyridin-3-yl)-4-(5-nitrothiophene-2-carboxamido)-1H-pyrazolo[3,4-d]pyrimidin-1-yl)pyrrolidine-1-carboxylate], the LC50 (Table 8, MTS) is reported as greater than 2000 nM.
`O=C(Nc1nc(-c2cc(F)c(F)c(F)c2)nc2c1cnn2-c1ccccc1)c1ccc([N+](=O)[O-])s1` [Compound 5-53, 5-nitro-N-(1-phenyl-6-(3,4,5-trifluorophenyl)-1H-pyrazolo[3,4-d]pyrimidin-4-yl)thiophene-2-carboxamide] was tested, and the LC50 (Table 5, MTS) was greater than 1250 nM.
With `O=C(Nc1nc(-c2cccnc2)nc2c1cnn2C1CCCCC1)c1ccc([N+](=O)[O-])s1` [Compound 10-10, N-(1-cyclohexyl-6-(pyridin-3-yl)-1H-pyrazolo[3,4,d]pyrimidin-4-yl)-5-nitrothiophene-2-carboxamide] the LC50 (Table 10, MTS) was 990 nM.
With `Cc1csc2c(-c3cccc(OC(F)(F)F)c3)nc(NC(=O)c3ccc([N+](=O)[O-])s3)nc12` [Compound 2-7, N-(7-methyl-(3-(trifluoromethoxy)phenyl)thieno[3,2-d]pyrimidin-2-yl)-5-nitrothiophene-2-carboxamide] the LC50 (Table 2, MTS) was 3430 nM.
Molecule `COCCN(C)c1ccc(-c2nc(NC(=O)c3ccc([N+](=O)[O-])s3)c3cnn(-c4ccc(F)cc4)c3n2)cn1` [Compound 6-131, N-(1-(4-fluorophenyl)-6-(6-((2-methoxyethyl)(methyl)amino)pyridin-3-yl)-1H-pyrazolo[3,4-d]pyrimidin-4-yl)-5-nitrothiophene-2-carboxamide] has an LC50 (Table 6, MTS) of 370 nM.
`CC(C)(C)OC(=O)N1CCC(n2ncc3c(NC(=O)c4ccc([N+](=O)[O-])s4)nc(-c4ccc(F)nc4)nc32)CC1` [Compound 9-4, tert-butyl 4-(6-(6-fluoropyridin-3-yl)-4-(5-nitrothiophene-2-carboxamido)-1H-pyrazolo[3,4-d]pyrimidin-1-yl)piperidine-1-carboxylate] showed an LC50 (Table 9, MTS) of 930 nM.
With `CC1CC=C(c2nc(NC(=O)c3ccc([N+](=O)[O-])s3)c3cnn(-c4ccc(F)cc4)c3n2)CC1` (stereo not shown) [Compound 6-142] the LC50 (Table 6, MTS) was 740 nM.
For `CCOC(=O)N1CCC(n2ncc3c(NC(=O)c4ccc([N+](=O)[O-])s4)nc(-c4ccc(F)nc4)nc32)C1` [Compound 8-5, ethyl (S)-3-(6-(6-fluoropyridin-3-yl)-4-(5-nitrothiophene-2-carboxamide)-1H-pyrazolo[3,4-d]pyrimidin-1-yl)pyrrolidine-1-carboxylate], the LC50 (Table 8, MTS) was greater than 2000 nM.
For `O=C(Nc1nc(N2CCC[C@H]2CO)nc2c1cnn2-c1ccc(Cl)c(Cl)c1)c1ccc([N+](=O)[O-])s1` [Compound 7-11, (S)—N-(1-(3,4-dichlorophenyl)-6-(2-(hydroxymethyl)pyrrolidin-1-yl)-1H-pyrazolo[3,4-d]pyrimidin-4-yl)-5-nitrothiophene-2-carboxamide], the LC50 (Table 7, MTS) was 510 nM.
